# In ChEMBL document CHEMBL1128139, “Synthesis of 2,3-dideoxy-3,4-dihydroxymethyl substituted pyrimidine nucleoside analogues” (Bioorg Med Chem Lett, 1995):
# The source made the active and inactive calls. No cut-off for these calls is given here.
# Tests used:
# [1] = test system: Human immunodeficiency virus 1; experiment: Compound was tested for anti HIV-1 and cytopathic effects in XTT assay;IA means inactive; format: functional, organism-based
# [2] = test system: HIV-1 reverse transcriptase (Human immunodeficiency virus 1); experiment: Compound was tested for HIV-1 RT inhibition in in vitro assay;IA means inactive
inhibition [2],SMILES,Activity [1]
inactive,Nc1ccn([C@@H]2C[C@H](CO)C(CO)(CO)O2)c(=O)n1,inactive
inactive,Cc1cn([C@H]2C[C@H](CO)C(CO)(CO)O2)c(=O)[nH]c1=O,inactive
inactive,Cc1cn([C@@H]2C[C@H](CO)C(CO)(CO)O2)c(=O)[nH]c1=O,inactive
inactive,Nc1ccn([C@H]2C[C@H](CO)C(CO)(CO)O2)c(=O)n1,inactive
